Results as given in patent publication US20240009137A1, “ORAL THERAPEUTIC DELIVERY” (ROYAL MELBOURNE INSTITUTE OF TECHNOLOGY, priority 2020, published 2024).
Where “and” joins values, the source holds several entries; their conditions need not be identical. Equal values may be shown once.

Legend:
[1] = Fluorescence recovery after photobleaching (FRAP), diffusion coefficient; type: physicochemical
Method: FRAP was performed on a Nikon confocal microscope. […] A bleaching and background region of interest (ROI) was used to selectively photobleach an area of the cubic phase and the fluorescence recovery curve was recorded with time. The excitation/emission wavelengths used were 553/627 nm for the octadecyl rhodamine B chloride. […] […] The open source Matlab code frap_analysis_2p5 was used to determine diffusion coefficients μ from FRAP data.

[2] = measured using NMR in a previous study; cited from earlier work
[3] = in vivo; parameters: species or system Sprague Dawley rats; details: male, Sprague-Dawley, rat, 1 mg/kg
Method: (§1) Four male Sprague Dawley rats were used as controls. Each rat was anaesthetised with isoflurane followed by preparation of the saphenous vein. The rats were given 1 mg/kg of meropenem via SC injection, immediately following this they were placed on a heat-mat until they regained consciousness, before being housed in pairs in boxes. Blood collection (150 μl) was taken via the saphenous vein at 0, 30-, 70-, 120-, 180-, 240- and 360-mins post-injection. The blood concentration of the protein in the blood was tested using the relevant ELISA kit for meropenem.
(§2) Eight male Sprague Dawley rats were used. Each rat was anaesthetised with isoflurane followed by preparation of the saphenous vein and the first blood collection (150 μl). An enteric capsule with a thick polymer coating of approximately 160 μm containing 1 mg/kg of meropenem encapsulated in MO lipid cubic phase was then introduced via oral gavage into the rat stomach. Immediately following this they were placed on a heat-mat until they regained consciousness, before being housed in pairs. Blood collection (150 μl) was taken via the saphenous vein at 0, 35-, 50-, 120-, 180-, 240- and 360-mins post-injection.
(§3) All data are analysed on a Clariostar Plate Reader to determine concentration against a standard curve for the relevant drug.
(§4) Concentrations provided in FIGS. 10-13 are the measured concentration of the drug in the blood plasma (determined using specific Elisa kits) and are in units of ng/ml. The initial drug concentration measured at the 0 time point has been set to zero in each case and other data scaled relative to this.

[4] = Vancomycin in blood plasma (ELISA) after SC injection or oral capsule; type: in vivo, Sprague Dawley rats
Method: as §1, with “given 15” for “given 1”, “of vancomycin” for “of meropenem”, “for each of the proteins.” for “for meropenem.”
as §2, with “containing 15” for “containing 1”, “of vancomycin” for “of meropenem”
as §3, §4

[5] = test system: blood glucose of diabetic Sprague Dawley rats; experiment: Blood glucose levels in STZ-induced diabetic rats after insulin by SC injection or oral capsule; type: in vivo; details: for time over which BG levels continued to decrease: 1 IU SC injection; for Percentage of SC injection (%), efficacy of oral delivery: MO cubic phase
Method: 14 Sprague Dawley rats were used in this trial. One week before each phase started, all rats were given isoflurane until unconscious. Each rat was then injected intravenously in the tail with 60 mg/kg of streptozotocin (STZ) in a sodium citrate buffer. All rats were then housed in pairs and blood glucose was monitored 3 times per day over 48 hours. The induction of diabetes was confirmed when the blood glucose level was >14 mmol/L in the morning.
The rats were then housed in pairs in two boxes. Blood collection was taken at 5-, 360-, and 1440-minutes post-injection, and the BG level tested at each time point.
(§5) Four Sprague Dawley rats were used in Phase 1 and four in Phase 2. Each was initially given isoflurane until unconscious. This was followed by preparation of the saphenous vein and the baseline basal BG was tested. […] Blood collection (10 μl) was taken at 15-, 30-, 60-, 120-, and 360-minutes post-injection. BG testing was performed immediately at each time point using an Accu Chek BG monitor and strips.
as §5, with “at” for “at 15-,”, “120-, 360-,” for “120-,”, “465-minutes” for “360-minutes”, “strips. One rat didn't develop diabetes and one rat had kidney problems. In each case, the AWO (Animal Welfare Officer) was consulted and both rats were removed from the trial.” for “strips.”
Four Sprague Dawley rats were used in this part of the trial. Each was initially given isoflurane until unconscious. This was followed by preparation of the saphenous vein and the first blood collection (10 μl) and BG testing. […] Blood collection (10 μl) was taken at 75-, 120-, 180-, 240-, 300- and 360- minutes, and BG testing was performed at each time point using an Accu Chek BG monitor and strips.
(§6) Two Sprague Dawley rats were used in this part of the trial. Each was initially given isoflurane until unconscious. This was followed by preparation of the saphenous vein and the first blood collection (10 μl) and BG testing. […] Immediately following this they were placed on a heat-mat until they regained consciousness, before being housed in pairs in boxes. Blood collection (10 μl) was taken at 105-, 135-, 165-, 210-, 345- and 460- minutes, and BG testing was performed at each time point using an Accu Chek BG monitor and strips.
as §6, with “Four” for “Two”, “45-, 75-, 120-, 160-, 220-, 260-, 300-” for “105-, 135-, 165-, 210-, 345-”, “360-” for “460-”
as §6, with “30-, 60-, 80-, 125-, 180-, 280-, 340-, 400-” for “105-, 135-, 165-, 210-, 345-”

[6] = Human growth hormone in blood plasma (ELISA) after SC injection or oral capsule; type: in vivo, Sprague Dawley rats
Method: as §1, with “human growth hormone” for “meropenem”, “human growth hormone.” for “meropenem.”
as §2, with “the human growth hormone” for “meropenem”, “120-,180-,” for “120-, 180-,”, “post-injection” for “post-injection.”
as §3, §4

[7] = oral enteric capsule, MO cubic phase, 15 mg/kg
[8] = 1 IU oral, MO cubic phase in enteric capsule T=3, Phase 1, Rats 2-4
[9] = oral enteric capsule vs SC, 1 mg/kg
[10] = oral enteric capsule, MO cubic phase, 1 mg/kg

## CCCCCCCCCCCCCCCCCCOC(=O)c1ccccc1-c1c2ccc(=[N+](CC)CC)cc-2oc2cc(N(CC)CC)ccc12.[Cl-] [Octadecyl rhodamine B chloride, octadecyl rhodamine B chloride]
[1]; in MO QII^D bulk cubic phase (insulin: FITC labelled, 5 mg/ml)
  Diffusion Coefficient: 0.97 ×10^−6 cm^2 s^−1
[1]; in PT QII^D bulk cubic phase (insulin: FITC labelled, 5 mg/ml)
  Diffusion Coefficient: 0.59 ×10^−6 cm^2 s^−1

## CC(C)CCCC(C)CCCC(C)CCCC(C)(O)C(O)CO (centres unmarked) [PT, phytantriol]
[2]
  lipid self-diffusion coefficient: 0.3 ×10^−6 cm^2 s^−1

## C[C@@H](O)[C@H]1C(=O)N2C(C(=O)O)=C(S[C@@H]3CN[C@H](C(=O)N(C)C)C3)[C@H](C)[C@H]12 [meropenem]
[3]
  bioavailability: 58%
  maximum drug plasma concentration as % of that following SC injection: 55%
[3]; po
  maximum drug concentration in blood plasma: 19 to 23 ng/mL
  time by which baseline drug concentrations are reached: ≤ 180 min
  time of maximum plasma concentration: 50 min
[3]; sc
  maximum drug concentration in blood plasma: 37 to 40 ng/mL
  time by which baseline values are reached: ≤ 240 min
  time of maximum plasma concentration: 30 min

## CN[C@H](CC(C)C)C(=O)N[C@H]1C(=O)N[C@@H](CC(N)=O)C(=O)N[C@H]2C(=O)N[C@H]3C(=O)N[C@H](C(=O)N[C@H](C(=O)O)c4cc(O)cc(O)c4-c4cc3ccc4O)[C@H](O)c3ccc(c(Cl)c3)Oc3cc2cc(c3O[C@@H]2O[C@H](CO)[C@@H](O)[C@H](O)[C@H]2O[C@H]2C[C@](C)(N)[C@H](O)[C@H](C)O2)Oc2ccc(cc2Cl)[C@H]1O [vancomycin]
[4]; SC injection 15 mg/kg
  time by which baseline values are reached: ≤ 180 min
  time of maximum plasma concentration: 30 min
[4]; SC injection 15 mg/kg, four rats
  maximum drug concentration in blood plasma: approximately 1500 ng/ml
[4]; male, Sprague-Dawley, rat, plasma, oral enteric capsule vs SC, 15 mg/kg, read-out: overall bioavailability as % of that following SC injection
  bioavailability: 73.9%
[4]; oral enteric capsule (approx. 160 μm coating), MO cubic phase, 15 mg/kg, range over rats
  maximum drug concentration in blood plasma: 790 to 960 ng/mL
[4]; oral enteric capsule vs SC, 15 mg/kg
  maximum drug plasma concentration as % of that following SC injection: 57%
[4]; [7]
  time by which baseline drug concentrations are reached: ≤ 180 min
  time of maximum plasma concentration: 50 min

## Actrapid insulin: fast acting insulin (Actrapid, Novo Nordisk), given SC or in MO cubic phase within enteric capsule
[5]; Phase 1
  time over which BG levels continued to decrease: approximately 110 mins
[5]; Phase 2
  time over which BG levels continued to decrease: approximately 120 mins
[5]; 1 IU oral, MO cubic phase in enteric capsule T=1, Phase 2, Rats 5-8
  lead time: BG levels continued to increase after oral administration: approximately 60 mins
[5]; 1 IU oral, MO cubic phase in enteric capsule T=1, Phase 2, individual Rats 5, 6, 7, 8 in this order
  overall decrease in BG: 6.2 mmol/L and 8.7 mmol/L and 11.4 mmol/L and 4.6 mmol/L
[5]; [8]
  lead time: BG levels continued to increase after oral administration: 100 to 110 min
  time period over which BG levels decreased: 70 to 180 min
[5]; 1 IU oral, MO cubic phase in enteric capsule T=3, Phase 1, individual Rats 2, 3, 4 in this order
  overall decrease in BG: 3.6 mmol/L and 3.1 mmol/L and 3.4 mmol/L
[5]; 15 IU by SC injection, pre-trial period, diabetic rats
  time BG levels remained below 14 mmol/L: approximately 450 minutes
[5]; Rat 1, perforated enterically coated capsule shell with lipid cubic phase, 1 IU, Phase 1 (comparative)
  response of blood glucose to oral administration: not pronounced
[5]; SC injection, 1 IU (reference)
  Percentage of SC injection (%): 100%
[5]; oral capsule T = 1 (thinner coating), 1 IU, listed as Fast Acting Insulin
  Percentage of SC injection (%), efficacy of oral delivery: 93.1%
[5]; oral capsule T = 1 (thinner coating), 1 IU, listed as fast-acting insulin
  Percentage of SC injection (%), efficacy of oral delivery: 93%
[5]; oral capsule T = 3 (thicker coating), 1 IU, listed as Fast Acting Insulin
  Percentage of SC injection (%), efficacy of oral delivery: 56.1%
[5]; oral capsule T = 3 (thicker coating), 1 IU, listed as fast-acting insulin
  Percentage of SC injection (%), efficacy of oral delivery: 56%

## human growth hormone: Human Growth Hormone (MyBioSource), given SC or in MO cubic phase within enteric capsule
[6]; SC injection 1 mg/kg
  time at which total amount of protein delivered (AUC) reaches a plateau: approximately 180 min
  time by which baseline drug concentrations are reached: ≤ 300 min
  time of maximum plasma concentration: 60 min
[6]; SC injection 1 mg/kg, range over four rats
  maximum drug concentration in blood plasma: 20 to 32 ng/mL
[6]; oral enteric capsule (approx. 160 μm coating), MO cubic phase, 1 mg/kg, range over rats
  maximum drug concentration in blood plasma: 19 to 24 ng/mL
[6]; [9]
  maximum drug plasma concentration as % of that following SC injection: 81%
  overall bioavailability as % of that following SC injection: 87.2%
[6]; [10]
  lag period before total protein delivered starts to increase: 30 min
  time at which total protein delivered (AUC) reaches a plateau: around 240 mins
  time by which baseline drug concentrations are reached: ≤ 240 min
  time of maximum plasma concentration: 50 min
